Results reported in patent US6897019B1, “Methods for treating and preventing insulin resistance and related disorders” (priority 1998, dated 2005).
“Also recorded” adds a separate entry of the source.

What was measured:
[1] = tested on: ERK1/2; test: ERK 1/2 kinase assay (MBP substrate) on extracts of treated 3T3-L1 adipocytes; type: cell-based, Mouse
Description: In this example, 3T3-L1 cells were treated as described in Example 2, and cell extracts were used in an ERK 1/2 kinase assay, using MBP (myelin basic protein) as a substrate. The assay used is described in Boulton et al. (1991) Cell Reg. 2: 357.
(§1) 3T3-L1 adipocytes prepared as described in Example 1 were pretreated for 3 hours with or without 20 mM NaSal or 100 μM PD98059 and then treated for 15 minutes with or without 10 ng/ml mTNF-α and with or without 10 μM BRL. Cell extracts were then prepared and used in ERK 1/2 kinase and JNK-1 kinase assays, as described above.
(§2) 3T3-L1 cells were pretreated for 3 days with 17 μM of PGJ2 and then for 15 minutes with 10 ng/ml TNF-α. The amount of phosphorylated (thus activated) JNK-1, ERK1/2, and p38 was determined by Western blot using an antibody specifically recognizing phosphorylated forms of the proteins. As a control, the total amount of JNK-1, ERK1/2 and p38 protein was determined by Western blot using an antibody recognizing the phosphorylated and non phosphorylated forms of the protein. The activity of ERK1/2 and JNK kinases was also determined in a kinase assay using MBP and a portion of c-jun, respectively, as substrate.

[2] = tested on: HSL; test: Western blot of HSL protein in 3T3-L1 adipocytes; type: cell-based, Mouse; conditions: TNF-α 10 ng/ml, 24 hours
Description: (§3) 3T3-L1 adipocytes were treated with TNF-α at 10 ng/ml, TNF-α plus BRL (10 μM), or BRL alone for 24 hours, following which cell lysates were collected and analyzed by Western blotting using antibodies against HSL and perilipin A proteins. Perilipin antibodies were generated by immunization of rabbits with a peptide identical to amino acids 9-23 of the rat perilipin protein (Greenberg et al. (1993) PNAS 90:12035). Antibodies to HSL were prepared by injecting a peptide based upon the rat HSL sequence (GeneBank) (KDLSFKGNSPEPSDSPEMC; SEQ ID NO: 1) into rabbits. Antibodies were subsequently affinity purified and used for Western blotting at a dilution of 1:1500. Western blotting was performed as follows: adipocytes are briefly rinsed with 1 ml of phosphate saline buffer (PBS, pH 7.4). Proteins were extracted by adding 200 μl of lysis buffer containing 50 mM Hepes, pH 7.4, 100 mM Nacl, 2 mM EDTA, 5% SDS, 0.1 mM Na3V) 4 , 50 mM NaF, 1 mM benzamidine, 100 μM AEBSF, adn 10 μg/ml aprotinin. Equivalent amounts of protein were separated by 10% SDS-PAGE, electrophoretically transferred to nitrocellulose membranes, incubated with primary antibody and subsequentely with donkey anti-rabbit IgG conducaged with horseradish peroxidase. Proteins were detected with enhanced chemiluminescence (ECL) system (Amersham).

[3] = tested on: 3T3-L1 adipocytes; test: Lipolysis (glycerol in culture medium) of 3T3-L1 adipocytes with or without TNF-α; type: cell-based, Mouse; conditions: for increase in glycerol accumulation versus untreated controls: last 24 hours of 5-day treatment; for blocked share of the increase in glycerol release due to TNF-α: BRL 10 μM or PGJ2 15 μM, last 24 hours; for reduction of the increase in glycerol release associated with TNF-α: then 24 hours TNF-α plus BRL 1 μM
Description: 3T3-L1 adipocytes used in this example were obtained from 3T3-L1 fibroblasts as follows. 3T3-L1 fibroblasts (ATCC Deposit NO. CL-173, described in U.S. Pat. No. 4,003,789) were cultured in Dulbecco's Modified Eagle's Medium (DMEM) containing 10% bovine calf serum, and induced to differentiate into adipocytes using standard protocols, as described, e.g., in Kohanski et al. (1996) J. Biol. Chem. 261:12272. Adipocytes were used 10-15 days after the differentiation protocol was initiated.
(§4) Differentiated 3T3-L1 adipocytes cultured in 12 well plates were incubated overnight in DMEM+0.5% BSA in the absence of serum. The following morning, the cells were incubated in the presence or absence of 2 mM or 20 mM sodium salicylate (NaSal) and treated with recombinant murine TNF-α (m TNF-α; Genzyme; Cambridge, Mass.) with or without 17 μM 15-deoxy-^12,14-PGJ2 (“PGJ2”; Cayman Chemical; Ann Arbor, Mich.) or 10 μM BRL 49653 (“BRL”; Smith Kine Beecham (Hamish Ross) (King of Prussia, Pa.)) for 24 hours. The glycerol content in the culture medium was determined using a colorimetric assay (GPO-Trinder, Sigma, St Louis, […].). Protein content was determined using the BCA (bicinchonic acid) protein assay (Pierce, Rockford, Ill.). The results are indicated as nmol glycerol per mg protein.
Accordingly, 3T3-L1 adipocytes were treated with BRL at 10 μM, 1 μM or 1 nM and TNF-α as described above, and the amount of glycerol was determined after 24 hours.
3T3-L1 adipocytes were treated with TNF-α (2 or 10 ng/ml), TNF-α plus BRL at 10 μM, TNF-α plus PGJ2 at 15 μM, or BRL or PGJ2 alone for 5 days. The media was replaced everyday and collected on day 5 to measure accumulation of glycerol.
[…] The glycerol content in the culture medium was determined as described above.
3T3-L1 adipocytes prepared as described in Example 1 were preincubated with various amounts (0-50 μM) of the p38 kinase inhibitor SB203580 and then treated with 10 ng/ml TNF-α for 24 hours and the amount of glycerol in the culture medium determined as described above. […]

[4] = tested on: perilipin A; test: Western blot of perilipin A protein in 3T3-L1 adipocytes; type: cell-based, Mouse; conditions: TNF-α 10 ng/ml, 24 hours
Description: as §3, with “(Amersham). […]” for “(Amersham).”

[5] = tested on: JNK-1; test: JNK-1 kinase assay (c-jun substrate) on extracts of treated 3T3-L1 adipocytes; type: cell-based, Mouse
Description: 3T3-L1 adipocytes were pretreated for 3 hours with or without 20 mM NaSal, with or without 100 μM MAP kinase kinase (MEK) inhibitor PD98059 (Biomol; Cat. No. EI-360) and then for 15 minutes with 10 ng/ml mTNF-α. JNK-1 kinase assays were then performed with extracts of each of these cell cultures on an N-terminal portion of c-jun, as described in Derjarde et al. (1994) Cell 76: 1025.
as §1, §2

[6] = tested on: JNK-1; test: Western blot of phosphorylated JNK-1 in 3T3-L1 cells; type: cell-based, Mouse; conditions: 3 days 17 μM PGJ2, then 15 minutes 10 ng/ml TNF-α
Description: as §2

[7] = tested on: p38; test: Western blot of phosphorylated p38 in 3T3-L1 cells; type: cell-based, Mouse; conditions: 3 days 17 μM PGJ2, then 15 minutes 10 ng/ml TNF-α
Description: as §2

[8] = tested on: 3T3-L1 adipocytes; test: Catecholamine (isoproterenol)-induced glycerol release from 3T3-L1 adipocytes; type: cell-based, Mouse; conditions: BRL or PGJ2
[9] = tested on: ERK1/2; test: Western blot of phosphorylated ERK1/2 in 3T3-L1 cells; type: cell-based, Mouse; conditions: 3 days 17 μM PGJ2, then 15 minutes 10 ng/ml TNF-α
Description: as §2

[10] = tested on: JNK; conditions: FS4 fibroblasts; Schwenger et al. 1997; cited from earlier work
[11] = tested on: p42/1p44 MAP kinases; conditions: FS4 fibroblasts; Schwenger et al. 1996; cited from earlier work
[12] = tested on: human adipocytes; test: TNF-α induced lipolysis in primary cultures of human adipocytes; type: cell-based; conditions: PD98059 72 hours pretreatment, then 24 hours 100 ng/ml human TNF-α
Description: Similar results were also obtained using primary cultures of human adipocytes. Primary cultures of human adipocytes, obtained from Zen-Bio were pretreated for 72 hours with PD98059 and then for 24 hours with 100 ng/ml of human TNF-α.

[13] = tested on: 3T3-L1 adipocytes; test: TNF-α induced FFA release from 3T3-L1 adipocytes (NEFA-C colorimetric kit); type: cell-based, Mouse; conditions: 24 hours
Description: as §4
In this example, cells were treated for 24 hours as described above, and FFA levels in the culture medium were determined using a colorimetric kit (NEFA-C, WAKO Pure Chemicals, Osaka, Japan).

[14] = Ehrman et al. 1997; cited from earlier work
[15] = 3 days 17 μM PGJ2, then 15 minutes 10 ng/ml TNF-α
[16] = 3 hours pretreatment with 20 mM NaSal or 100 μM PD98059, then 15 minutes 10 ng/ml TNF-α
[17] = PD98059, pretreatment for 3 hours

TNF-α
increase in phosphorylation of the MBP substrate (ERK1/2 activation) ([1]; 10 ng/ml TNF-α, 15 minutes): seven | HSL protein expression versus untreated controls [2]: slightly decreased | increase in glycerol accumulation versus untreated controls ([3]; 2 ng/ml TNF-α): ~10 fold | increase in glycerol accumulation versus untreated controls ([3]; 10 ng/ml TNF-α): ~13 fold | expression of perilipin A protein versus untreated controls [4]: markedly decreased

CCCCC/C=C/C=C1/C(=O)C=C[C@@H]1C/C=C\CCCC(=O)O [PGJ2, 15-deoxy-^12,14-PGJ2]
TNF-α induced increase in JNK-1 kinase activity [5, 15]: to a lesser extent | TNF-α induced increase in ERK1/2 kinase activity [1, 15]: significantly inhibits | phosphorylation of JNK-1 [6]: significantly reduces | inhibition of TNF-α induced lipolysis ([3]; 10 μM BRL or 17 μM PGJ2, TNF-α 2 or 10 ng/ml, 24 hours): significantly inhibited; also recorded: inhibit | blocked share of the increase in glycerol release due to TNF-α ([3]; 5 days, TNF-α 2 or 10 ng/ml): about 100% | glycerol accumulation versus control (untreated) cells ([3]; BRL or PGJ2 alone, 5 days): not different from levels measured in control | further reduction of lipolysis when added to NaSal ([3]; added to cells incubated with 20 mM NaSal, TNF-α, 24 hours): did not further reduce lipolysis | phosphorylation of p38 [7]: significantly reduces | block of isoproterenol-induced glycerol release [8]: neither BRL nor PGJ2 was able to block | phosphorylation of ERK1/2 [9]: significantly reduces

O=C([O-])c1ccccc1O.[Na+] [NaSal, sodium salicylate]
TNF-α induced JNK-1 activation (kinase activity) [5, 16]: significantly reduced; also recorded: decreases | inhibition of ERK1/2 activation ([1]; 20 mM NaSal 3 hours, then 15 minutes 10 ng/ml TNF-α): about two | inhibition of TNF-induced activation of JNK [10]: capable of inhibiting | inhibition of TNF-induced activation of p42/1p44 MAP kinases [11]: capable of inhibiting | ability of TNF-α to increase lipolysis ([3]; 2 mM NaSal): partially reduced | inhibition of glycerol production, factor ([3]; 2 mM NaSal, induced by 10 ng/ml TNF-α, 24 hours): ~2 factor | ability of TNF-α to increase lipolysis ([3]; 20 mM NaSal): completely blocked | inhibition of TNF-α induced lipolysis ([3]; 2 or 20 mM NaSal, TNF-α 2 ng/ml (Panel A) or 20 ng/ml (Panel B), 24 hours): significantly inhibited | inhibition of glycerol production, factor ([3]; induced by 2 ng/ml TNF-α, NaSal 2 or 20 mM, 24 hours): 3-4 factor

C[S+]([O-])c1ccc(-c2nc(-c3ccncc3)c(-c3ccc(F)cc3)[nH]2)cc1 (stereo not shown) [SB203580]
release of glycerol from the adipocytes ([3]; SB203580 0-50 μM preincubation, then 10 ng/ml TNF-α 24 hours): increases the release of glycerol | concentration up to which glycerol release is proportional to the amount added ([3]; SB203580, 10 ng/ml TNF-α 24 hours): ≤ 20 µM

COc1cccc(-c2cc(=O)c3ccccc3o2)c1N [PD98059]
increase of MBP phosphorylation in the presence of TNF-α and inhibitor, factor ([1]; 100 μM PD98059 3 hours, then 15 minutes 10 ng/ml TNF-α): less than two | inhibition of MAP kinase activation ([1]; 100 μM PD98059 (Example 6, FIG. 6)): at least 90% | TNF-α induced ERK1/2 activation (kinase activity) [1, 16]: inhibited | TNF-α induced lipolysis in human cells [12]: reduced | decrease of TNF-α induced lipolysis, factor ([3]; 100 μM PD98059, 24 hours pretreatment, then TNF-α 24 hours): less than 2 factor | reduction of TNF-α induced lipolysis [3, 17]: about 76% | reduction of TNF-α induced lipolysis, factor [3, 17]: about 3 factor

CN(CCOc1ccc(CC2SC(=O)NC2=O)cc1)c1ccccn1 (stereo not shown) [BRL, rosiglitazone]
reduction in activation of ERK, factor ([1]; 72 hour pretreatment with 5 μM BRL, then TNF-α 10 ng/ml 15 minutes in the presence of BRL): about 2.5 factor | effect on FFA release ([13]; BRL alone, no TNF-α): no effect | reduction of TNF-α induced FFA release ([13]; BRL, 10 ng/ml TNF-α): about 90% | reduction of the increase in glycerol release associated with TNF-α ([3]; 24 hour pretreatment with TNF-α 2 ng/ml): about 65% | reduction of the increase in glycerol release associated with TNF-α ([3]; 24 hour pretreatment with TNF-α 10 ng/ml): about 50% | inhibition of basal lipolysis ([3]; 72 hour pretreatment with BRL, no TNF-α): approximately 30% | blocked share of the increase in glycerol release due to TNF-α ([3]; 5 days, TNF-α 2 or 10 ng/ml): about 100% | inhibition of TNF-α induced lipolysis ([3]; BRL, Example 6 (72 hour pretreatment context)): > 90% | earliest time point at which the effect of TNF-α on glycerol release began to reverse ([3]; after addition of BRL to TNF-α pretreated cells): 6 h

Cc1c(C)c2c(c(C)c1O)CCC(C)(COc1ccc(CC3SC(=O)NC3=O)cc1)O2 (stereo not shown) [troglitazone, 5-[[4-[(3,4-dihydro-6-hydroxy-2,5,7,8-tetramethyl-2H-1-benzopyran-2-yl)methoxy]phenyl]methyl]-2,4-thiazolidinedione]
efficacy in PCOS [14]: effective
